Several values for one entry are separate records, joined by “and”; a condition that tells them apart may be missing. Equal values may be shown once.
How the values were obtained:
[1] = test system: hyperuricemic subjects with symptomatic gout; test: Pilot study of drug 1 versus placebo and open-label allopurinol in hyperuricemic subjects with symptomatic gout (Examples 1, 2, 20); assay type: in vivo, human
Method: Study Objectives • To compare the proportion of subjects whose sUA level is <6.0 mg/dL following 2 weeks of continuous treatment with drug 1 compared to allopurinol and placebo. • To evaluate the percent reduction from baseline in sUA levels following 2 weeks of continuous treatment with drug 1 in combination with allopurinol. • To evaluate the proportion of subjects whose sUA levels are <6.0 mg/dL, <5.0 mg/dL and <4.0 mg/dL at each visit. • To evaluate the absolute and percent reduction from baseline in sUA levels at each visit. • To evaluate the maximum percent reduction in sUA levels from baseline during the entire treatment period. • To evaluate percent change in 24-hour urine uric acid level from baseline to Day 15. • To evaluate the safety and tolerability of drug 1 in subjects with gout. • To evaluate the pharmacokinetics, safety and tolerability of drug 1 in combination with allopurinol in subjects with gout.
A randomized, double-blind, placebo-controlled, dose titration, safety and pharmacodynamics pilot study, in approximately 26 hyperuricemic subjects with symptomatic gout enrolled at 2-3 investigational sites in N America, of: • drug 1 versus placebo and open-label allopurinol (Cohort 1); and • drug 1 in combination with allopurinol versus continued allopurinol alone (Cohort 2)
Subjects are randomized 7 days prior to Day 1 in a double-blind fashion to receive drug 1, drug 1 matching placebo, or open-label allopurinol (Cohort 1) or drug 1 or drug 1 matching placebo in combination with allopurinol (Cohort 2).
To reduce the incidence of gout flares, colchicine 0.6 mg qd is administered to all subjects starting 14 days prior to the Baseline (Day 1) visit. Subjects continue colchicine administration throughout the Treatment Period, discontinuing at the End of Study visit (one week after the last dose of study medication).
Cohort 1 approx 20 subjects randomized in 2:1:1 ratio treatment groups—drug 1:placebo:allopurinol.
Subjects randomized to double-blind treatment: • approx 10 subjects randomized to receive drug 1 200 mg qd (4 drug 1 50 mg capsules/day) for one week, followed by drug 1 400 mg qd (8 drug 1 50 mg capsules/day) for one week. • 5 subjects randomized to receive drug 1 matching placebo qd for 2 weeks (week 1-4 drug 1 matching placebo capsules; week 2-8 drug 1 matching placebo capsules)
Subjects randomized to open-label treatment: • 5 subjects randomized to receive allopurinol 300 mg tablets qd for 2 weeks Cohort 2 approx 6 subjects randomized in 5:1 ratio treatment groups—drug+allopurinol:placebo+allopurinol
For Cohorts 1 and 2, subjects randomized to double-blind treatment take drug 1 or drug 1 matching placebo every 24 hours (±1 h) (morning dose) for a period of 2 weeks. For Cohort 1, subjects randomized to open-label treatment take allopurinol every 24 hours (±1 h) (morning dose) for a period of 2 weeks.
Subjects are requested to then drink approximately 240 mL of water 1-2 hours after dosing.
1. Male or post-menopausal or surgically sterile female. 2. 18-75 years of age. 3. Hyperuricemic, defined as: Cohort 1: Screening serum uric acid is ≥8 mg/dL Cohort 2: Screening serum uric acid is ≥10 mg/dL 4. Subject meets one or more of the 1977 American Rheumatism Association (ARA) criteria for the diagnosis of acute arthritis of primary gout. 5. Subject is willing and able to give informed consent and adhere to visit/protocol schedules.
Blood samples (4.5 mL) are collected and sUA levels determined at Screening (repeated as necessary prior to Day 1), Baseline (Day 1) (1 hour and 8 hours post-dose), Day 8 (trough, 1 hour and 8 hours post-dose), Day 9 (24 hours after Day 8 dose), and Day 14 (trough and 8 hours post-dose), Day 15 and End of Study. An additional sUA level is obtained on Day 7 for Cohort 2 subjects prior to the first dose of allopurinol.
Primary pharmacodynamics parameter is the proportion of subjects with serum uric acid <6.0 mg/dL following 2 weeks of treatment. […]

URAT1 = molecular target: T1, URAT1 (Homo sapiens, UniProt Q96S37); settings: in vitro; cited from earlier work
T1 sequence (Q96S37 1-553): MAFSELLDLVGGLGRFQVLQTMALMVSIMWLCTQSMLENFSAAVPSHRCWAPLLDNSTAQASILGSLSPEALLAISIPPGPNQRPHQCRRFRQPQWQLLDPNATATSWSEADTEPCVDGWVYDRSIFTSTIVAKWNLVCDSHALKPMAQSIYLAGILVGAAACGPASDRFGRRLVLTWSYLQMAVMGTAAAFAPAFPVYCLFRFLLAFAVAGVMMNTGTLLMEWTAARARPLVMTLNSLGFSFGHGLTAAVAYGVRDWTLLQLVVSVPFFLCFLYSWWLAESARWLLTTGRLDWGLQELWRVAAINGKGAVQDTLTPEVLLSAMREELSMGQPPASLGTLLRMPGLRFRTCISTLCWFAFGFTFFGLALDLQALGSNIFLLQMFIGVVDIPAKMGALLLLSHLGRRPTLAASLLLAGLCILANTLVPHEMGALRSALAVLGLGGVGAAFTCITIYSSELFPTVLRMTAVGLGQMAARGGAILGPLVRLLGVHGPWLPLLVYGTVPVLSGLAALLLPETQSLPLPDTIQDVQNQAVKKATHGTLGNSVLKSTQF

[2] = Cohort 1, preliminary safety summary

O=C(O)CSc1nnc(Br)n1-c1ccc(C2CC2)c2ccccc12 [Drug 1, Sodium 2-(5-bromo-4-(4-cyclopropylnaphthalen-1-yl)-4H-1,2,4-triazol-3-ylthio)acetate]
ECG findings including interval measurements [1, 2]: No clinically significant ECG findings | Tolerability (SAEs, deaths, discontinuations due to adverse events) [1, 2]: well tolerated in this study, with no SAEs, deaths or discontinuations due to adverse events | Responders Day 14 (those with sUA <6 mg/dL) ([1]; Cohort 1, Day 14, responders/subjects, drug 1 200 mg qd 1 week then 400 mg qd 1 week, allopurinol 300 mg qd 2 weeks): 6/10^2 | sUA at Day 14 of individual patients not below 6 mg/dL ([1]; Day 14, two non-responders without baseline sUA above 11 mg/dL): 6.2 mg/dL and 6.3 mg/dL | Reduction in serum urate levels, on average ([1]; after the first week of treatment (200 mg qd)): 40% | Reduction in sUA, patient with the lowest baseline CrCl ([1]; baseline CrCl 53 ml/min): 40% | Reduction in sUA, all patients with renal impairment ([1]; by the end of week 2, mild to moderate diminished renal function): ≥ 30% | Plasma levels in gout patients ([1]; compared with Phase 1 healthy volunteer studies): generally consistent with those observed in Phase 1 healthy volunteer studies | Linear trend of sUA reduction versus creatinine clearance ([1]; day 14, 400 mg qd, Cockcroft-Gault and MDRD methods): increasing benefit with lower CrCL | Increase in serum creatinine (SCr), Grade 1 AE ([1]; two patients while on 400 mg QD, SCr fell back to normal limits after study): > 30% | Effect on the URAT1-mediated uptake of uric acid (URAT1): concentration-dependent inhibitory effect

Reference: patent publication US20180161314A1, “Methods for Treating Hyperuricemia and Related Diseases” (Ardea Biosciences, Inc., priority 2010, published 2018)
